The values that follow come from US12385008B2, “Method for producing retinal tissue” (SUMITOMO PHARMA CO., LTD., priority 2015, dated 2025).

SMILES strings stand for the structures.

In assay [1] the test system is human iPS cells (1231A3 strain). The experiment in a line: Microscopic observation of collapse of cell aggregates from human iPS cells (Example 2). The class given is cell-based. To be noted: 10 days after start of suspension culture, FIG. 2. As to the method: (§1) iPS cells derived from human peripheral blood derived-mononuclear cells established from ePMBC (registered trade mark) of Cellular Technology Limited (1231A3 strain, Kyoto University) were used. Undifferentiated maintenance culture of these iPS cells under feeder cell-free conditions was performed according to the method described in “Nakagawa, M. et. al., Sci. Rep. 2014 Jan. 8; 4: 3594”. As the medium, “StemFit (registered trade mark)” AK03 medium (Ajinomoto Co., Inc.) was used and iMatrix-511 (Nippi) was used as a culture substrate.
Production of retinal tissue including a step of culturing in a medium containing an MEK inhibitor, a PKC inhibitor or a Sonic hedgehog signal transduction pathway activating substance was performed as follows. Human iPS cells under culture for maintaining an undifferentiated state were treated with 0.5×TrypLE select (mixture of equal amounts of TrypLE select (Life Technologies) and 0.5 mM EDTA/PBS(−)), scraped using a cell scraper, dispersed to single cells by pipetting, seeded in a 6-well culture plate coated with iMatrix-511 (0.5 μg/cm^2) at 1.2×10^4 cells per 1 well, and cultured in a StemFit medium containing Y-27632 (Wako Pure Chemical Industries, Ltd.) (final concentration 10 μM) as a ROCK inhibitor under 37° C., 5% CO2 conditions. At 2 days after the seeding, PD0325901 (SIGMA) (final concentration 1 μM) as an MEK inhibitor and Go6983 (SIGMA) (final concentration 2 μM) as a PKC inhibitor were added and the mixture was cultured for 5 days, or at 6 days after seeding, PD0325901 (final concentration 1 μM) was added and the mixture was cultured for […] (completion of step 1). The cells cultured in the medium containing the above-mentioned inhibitors were treated with 0.5×TrypLE select, scraped using a cell scraper, dispersed to single cells by pipetting, seeded in a 96-well culture plate (PrimeSurface 96 V-BOTTOM plate, SUMITOMO BAKELITE CO., LTD.) at 1.0×10^4 cells per 1 well, and cultured in 100 μl of a gfCDM+KSR medium [45% IMDM (Life Technologies), 45% F12 (Life Technologies), 10% KSR (Life Technologies), 1% Chemically defined lipid concentrate (Life Technologies), 450 μM 1-Thioglycerol (SIGMA)] supplemented with Y-27632 (final concentration 20 μM) (second step SAG(−)) or seeded in a gfCDM+KSR medium supplemented with SAG (Enzo) (final concentration 30 nM) (second step SAG(+)) and cultured in suspension under 37° C., 5% CO2 conditions. Cell aggregates were formed by 2 days after the start of the suspension culture (completion of step 2). […]

Assay [2] has the same test system. The experiment in a line: Pax6 and Chx10 immunostaining of cell aggregates from human iPS cells (Example 2). It is filed as cell-based. To be noted: first step MEK inhibitor ± PKC inhibitor; second step with 30 nM SAG; BMP4 1.5 nM from day 3; 22 days after start of suspension culture; FIG. 3. The procedure: as §1
Production of retinal tissue including a step of culturing in a medium containing an MEK inhibitor, a PKC inhibitor or a Sonic hedgehog signal transduction pathway activating substance was performed as follows. Human iPS cells under culture for maintaining an undifferentiated state were treated with 0.5×TrypLE select (mixture of equal amounts of TrypLE select (Life Technologies) and 0.5 mM EDTA/PBS(−)), scraped using a cell scraper, dispersed to single cells by pipetting, seeded in a 6-well culture plate coated with iMatrix-511 (0.5 μg/cm^2) at 1.2×10^4 cells per 1 well, and cultured in a StemFit medium containing Y-27632 (Wako Pure Chemical Industries, Ltd.) (final concentration 10 μM) as a ROCK inhibitor under 37° C., 5% CO2 conditions. […]

As to `O=C(NOC[C@H](O)CO)c1ccc(F)c(F)c1Nc1ccc(I)cc1F` [PD0325901], the collapse of aggregates entry in assay [1] (1-day treatment in first step (1 μM), second step SAG(+) (30 nM SAG)) is listed as “collapse of aggregates was hardly observed”; in assay [1] (1-day treatment in first step (1 μM), second step SAG(−)), “collapse of aggregates was observed”; in assay [1] (5-day treatment in first step (PD0325901 1 μM, Go6983 2 μM), irrespective of presence or absence of SAG in second step), “Collapse of aggregates was not observed”. Also, the “Pax6, Chx10 (retinal progenitor cell markers) co-positive cells in cell aggregates” value in assay [2] is given as “Pax6, Chx10 co-positive cells were confirmed”.
On to `CNC1CCC(N(Cc2cccc(-c3ccncc3)c2)C(=O)c2sc3ccccc3c2Cl)CC1` (centres unmarked) [SAG, N-methyl-N′-(3-pyridinylbenzyl)-N′-(3-chlorobenzo[b]thiophene-2-carbonyl)-1,4-diaminocyclohexane], for which, in assay [1] (non-treatment in first step, second step SAG(+) (30 nM SAG)), the collapse of aggregates entry is “collapse of aggregates was hardly observed”.
